Assay results published in patent US20120122727A1, “IN VITRO METHOD FOR PREDICTING WHETHER A COMPOUND IS GENOTOXIC IN VIVO” (priority 2009, published 2012).
Where two headings read alike, the source gives them in different places.

Test system: primary mouse hepatocytes
Test: Gene expression in primary mouse hepatocytes, GTX vs non-GTX (four-gene classifier, 24 h)
Experimental: Hepatocyte cells were incubated and exposed to a compound for 24 h before being harvested for RNA isolation.
The results of the gene expression analysis may then be fed into a statistical software package such as R, Splus, or Microsoft Excel. […] If none or only one of these criteria were met, no point was scored.
For each of the four genes mentioned in the table (1700007K13RIK, GAS2L3, SPC25, DDIT4L), a statistical comparison was made between the normalized expression data for these genes. […] If none or only one of these criteria were met, no point was scored.
For each compound, the sum of the scores for four genes is taken. If this score is 0, a compound can be believed not to be genotoxic. If this score is 1, 2, 3 or 4, a compound is genotoxic.
If none or only one of these criteria were met, no point was scored.

[1] = 24 h exposure, average of four replicates
[2] = log 2 ratio, 24 h exposure, concentration per Table 4
[3] = sum of scores for four genes, 0 = not genotoxic, 1, 2, 3 or 4 = genotoxic

Compound | score 1700007K13RIK [1] | score DDIT4L [1] | score GAS2L3 [1] | score SPC25 [1] | Ratios of gene expression treated/untreated 1700007K13RIK [2] | Ratios of gene expression treated/untreated DDIT4L [2] | Ratios of gene expression treated/untreated GAS2L3 [2] | Ratios of gene expression treated/untreated SPC25 [2] | Total score [3] | Ratios of gene expression treated/untreated 1700007K13RIK | Ratios of gene expression treated/untreated DDIT4L | Ratios of gene expression treated/untreated GAS2L3 | Ratios of gene expression treated/untreated SPC25 | Total score | score 1700007K13RIK | score DDIT4L | score GAS2L3 | score SPC25
OC[C@@H](O)[C@@H](O)[C@H](O)[C@H](O)CO [dMan, D-Mannitol] | 0 | 0 | 0 | 0 | 0.02382 | 0.03421 | −0.2175 | −0.0363 | 0 |  |  |  |  |  |  |  |  | 
Cc1cccc(Nc2cc(Cl)nc(SCC(=O)O)n2)c1C [Wyeth, Wy-14,643] | 0 | 0 | 0 | 0 | −0.3527 | −0.1013 | −0.7113 | −0.0756 | 0 |  |  |  |  |  |  |  |  | 
CCC[CH2][Sn]([CH2]CCC)([CH2]CCC)[O][Sn]([CH2]CCC)([CH2]CCC)[CH2]CCC [TBTO, Bis(tri-n-butyltin)oxide] | 0 | 0 | 0 | 0 | 0.09131 | 0.319 | −0.0161 | 0.2186 | 0 |  |  |  |  |  |  |  |  | 
ClC(Cl)(Cl)Cl [CCI4, Carbon tetrachloride] | 0 | 0 | 0 | 0 | 0.3906 | 0.4894 | −0.3188 | 0.3544 | 0 |  |  |  |  |  |  |  |  | 
Clc1cc2c(cc1Cl)Oc1cc(Cl)c(Cl)cc1O2 [TCDD, 2,3,7,8-Tetrachlorodibenzodioxin] | 0 | 0 | 0 | 0 | 0.0752 | 0.2646 | 0.22 | 0.01802 | 0 |  |  |  |  |  |  |  |  | 
O=C(O)Cc1ccccc1Nc1c(Cl)cccc1Cl [DF, Diclofenac] | 0 | 0 | 0 | 0 |  |  |  |  | 0 | 0.09622 | 0.1268 | −0.2839 | 0.4079 |  |  |  |  | 
CCCCCCCCCCCCCC(=O)O[C@@H]1[C@@H](C)[C@@]2(O)[C@@H](C=C(CO)C[C@]3(O)C(=O)C(C)=C[C@@H]23)[C@@H]2C(C)(C)[C@]12OC(C)=O [TPA, Tetradecanoylphorbol Acetate] | 0 | 0 | 0 | 0 | −0.0617 | 0.05594 | 0.01747 | 0.03809 | 0 |  |  |  |  |  |  |  |  | 
CC(C)(c1ccc(O)cc1)c1ccc(O)cc1 [BPA, Bisphenol A] | 0 | 0 | 0 | 0 | −0.0382 | 0.0293 | −0.06 | −0.0457 | 0 |  |  |  |  |  |  |  |  | 
COc1ccc(C)cc1N [pCres, Para-Cresidine] |  |  |  |  |  |  |  |  |  | 0.2086 | 1.066 | 1.562 | 1.331 | 3 | 0 | 1 | 1 | 1
